Measured values taken from patent publication US10654816B2, “Compounds and compositions for treating conditions associated with NLRP activity” (NOVARTIS INFLAMMASOME RESEARCH, INC., priority 2017, dated 2020).

system: IL-1β production in PMA-differentiated THP-1 cells; assay: IL-1β production in PMA-differentiated THP-1 cells stimulated with gramicidin (hTHP-1 assay, HTRF readout; Procedures 1-3); format: cell-based, human; conditions: Homo sapiens, THP-1, hTHP-1 assay containing 2% fetal bovine serum; average; class symbols; read-out: hTHP-1 IC50 (Average IC50 of compounds in hTHP-1 assay)
In short: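 PMA-differentiated (20 ng/ml, 16-18 h) THP-1 cells in RPMI with 2% FBS, 50,000 cells/well, preincubated 1 h with compound (final 0.0017-100 μM, 0.37% DMSO), then stimulated with 5 μM gramicidin for 2 h. IL-1β in cell-free supernatant measured by HTRF (620/668 nm).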

| SMILES | IC50 |
| --- | --- |
| NS(=O)(=NC(=O)Nc1c2c(cc3c1CCC3)CCC2)c1ccc(CN2CCC(F)(F)C2)cc1 (stereo not shown) [Example 235, 4-((3,3-Difluoropyrrolidin-1-yl)methyl)-N′-(1,2,3,5,6,7-hexahydro-s-indacen-4-ylcarbamoyl)benzenesulfonimidamide] | 1000 to 5000 nM |
| NS(=O)(=NC(=O)Nc1c2c(cc3c1CCC3)CCC2)c1ccc(CN2CCCC2)cc1 (stereo not shown) [Example 236, N′-(1,2,3,5,6,7-hexahydro-s-indacen-4-ylcarbamoyl)-4-(pyrrolidin-1-ylmethyl)benzenesulfonimidamide] | 1000 to 5000 nM |
| NS(=O)(=NC(=O)Nc1c2c(cc3c1CCC3)CCC2)c1ccc(CN2CCC2)cc1 (stereo not shown) [Example 237, 4-(Azetidin-1-ylmethyl)-N′-(1,2,3,5,6,7-hexahydro-s-indacen-4-ylcarbamoyl)benzenesulfonimidamide] | 1000 to 5000 nM |
| C=CCN(C)Cc1ccc(S(N)(=O)=NC(=O)Nc2c3c(cc4c2CCC4)CCC3)cc1 (stereo not shown) [Example 238, 4-((Allyl(methyl)amino)methyl)-N′-(1,2,3,5,6,7-hexahydro-s-indacen-4-ylcarbamoyl)benzenesulfonimidamide] | 1000 to 5000 nM |
| C#CCN(C)Cc1ccc(S(N)(=O)=NC(=O)Nc2c3c(cc4c2CCC4)CCC3)cc1 (stereo not shown) [Example 239, N′-(1,2,3,5,6,7-hexahydro-s-indacen-4-ylcarbamoyl)-4-((methyl(prop-2-ynyl)amino)methyl)benzene-sulfonimidamide] | 1000 to 5000 nM |
| CN(Cc1ccc(S(N)(=O)=NC(=O)Nc2c3c(cc4c2CCC4)CCC3)cc1)CC1CC1 (stereo not shown) [Example 240, 4-(((Cyclopropyl-methyl)(methyl)amino)methyl)-N′-(1,2,3,5,6,7-hexahydro-s-indacen-4-ylcarbamoyl)benzenesulfonimidamide] | 1000 to 5000 nM |
| CN(Cc1ccc(S(N)(=O)=NC(=O)Nc2c3c(cc4c2CCC4)CCC3)cc1)CC(F)F (stereo not shown) [Example 241, 4-(((2,2-Difluoroethyl)(methyl)amino)methyl)-N′-(1,2,3,5,6,7-hexahydro-s-indacen-4-ylcarbamoyl)benzenesulfonimidamide] | 1000 to 5000 nM |
| COCc1ccc(S(N)(=O)=NC(=O)Nc2c3c(cc4c2CCC4)CCC3)cc1 (stereo not shown) [Example 242, N′-(1,2,3,5,6,7-hexahydro-s-indacen-4-ylcarbamoyl)-4-(methoxymethyl)benzenesulfonimidamide] | 1000 to 5000 nM |
| NCc1ccc(S(N)(=O)=NC(=O)Nc2c3c(cc4c2CCC4)CCC3)cc1 (stereo not shown) [Example 243, 4-(Aminomethyl)-N′-(1,2,3,5,6,7-hexahydro-s-indacen-4-ylcarbamoyl)benzenesulfonimidamide] | 1000 to 5000 nM |
| NS(=O)(=NC(=O)Nc1c2c(cc3c1CCC3)CCC2)c1ccc(CN2CCCC2=O)cc1 (stereo not shown) [Example 244] | 5000 to 30000 nM |
| CN(C)S(=O)(=NC(=O)Nc1c2c(cc3c1CCC3)CCC2)c1cc(C(C)(C)O)cs1 (stereo not shown) [Example 245] | 5000 to 30000 nM |
| CNS(=O)(=NC(=O)Nc1c2c(cc3c1CCC3)CCC2)c1cc(C(C)(C)O)cs1 (stereo not shown) [Example 246] | 5000 to 30000 nM |
| CC(=O)NS(=O)(=NC(=O)Nc1c2c(cc3c1CCC3)CCC2)c1cnc(C(C)(C)O)s1 (stereo not shown) [Example 250] | 5000 to 30000 nM |
| COC(=O)CCC(=O)N(C)Cc1ccc(S(N)(=O)=NC(=O)Nc2c3c(cc4c2CCC4)CCC3)cc1 (stereo not shown) [Example 251] | 1000 to 5000 nM |

Continued, values first:

| IC50 | SMILES |
| --- | --- |
| 1000 to 5000 nM | CC(C)c1ccc(C#N)c(C(C)C)c1NC(=O)N=S(N)(=O)c1ccc(C(C)(C)O)s1 (stereo not shown) [Example 254, N′-((3-cyano-2,6-diisopropylphenyl)carbamoyl)-5-(2-hydroxypropan-2-yl)thiophene-2-sulfonimidamide] |
| 5000 to 30000 nM | CCc1ccc2cnn(C)c2c1NC(=O)N=S(N)(=O)c1ncc(C(C)(C)O)s1 (stereo not shown) [Example 255, N′-((6-ethyl-1-methyl-1H-indazol-7-yl)carbamoyl)-5-(2-hydroxypropan-2-yl)thiazole-2-sulfonimidamide] |
| 40 to 200 nM | CC(C)(O)c1cnc(S(N)(=O)=NC(=O)Nc2c3c(cc4c2CCO4)CCC3)s1 (stereo not shown) [Example 257, 5-(2-hydroxypropan-2-yl)-N′-((3,5,6,7-tetrahydro-2H-indeno[5,6-b]furan-4-yl)carbamoyl)thiazole-2-sulfonimidamide] |
| 200 to 1000 nM | CC(C)(O)c1cc(S(N)(=O)=NC(=O)Nc2c3c(cc4c2CCC4)CCC3)nn1-c1ccccc1 (stereo not shown) [Example 259, N′-((1,2,3,5,6,7-hexahydro-s-indacen-4-yl)carbamoyl)-5-(2-hydroxypropan-2-yl)-1-phenyl-1H-pyrazole-3-sulfonimidamide] |
| 200 to 1000 nM | CC(C)(O)c1ccc(S(N)(=O)=NC(=O)Nc2c3c(cc4c2CCC4)CCC3)cn1 (stereo not shown) [Example 260, N′-((1,2,3,5,6,7-hexahydro-s-indacen-4-yl)carbamoyl)-6-(2-hydroxypropan-2-yl)pyridine-3-sulfonimidamide] |
| 1000 to 5000 nM | C#CCCC(=O)N(C)Cc1ccc(S(N)(=O)=NC(=O)Nc2c3c(cc4c2CCC4)CCC3)cc1 (stereo not shown) [Example 261, N-(4-(N′-((1,2,3,5,6,7-hexahydro-s-indacen-4-yl)carbamoyl)sulfamidimidoyl)benzyl)-N-methylpent-4-ynamide] |
| 8 to 40 nM | CC(C)(O)c1csc(S(N)(=O)=NC(=O)Nc2c3c(cc4c2CC4)CCC3)n1 (stereo not shown) [Example 262, 4-(2-Hydroxypropan-2-yl)-N′-((2,4,5,6-tetrahydro-1H-cyclobuta[f]inden-3-yl)carbamoyl)thiazole-2-sulfonimidamide] |
| 1000 to 5000 nM | Cc1nc(C(C)(C)O)ccc1S(N)(=O)=NC(=O)Nc1c2c(cc3c1CCC3)CCC2 (stereo not shown) [Example 264, N′-((1,2,3,5,6,7-hexahydro-s-indacen-4-yl)carbamoyl)-6-(2-hydroxypropan-2-yl)-2-methylpyridine-3-sulfonimidamide] |
| 40 to 200 nM | Cc1sc(S(N)(=O)=NC(=O)Nc2c3c(cc4c2CCC4)CCC3)nc1C(C)(C)O (stereo not shown) [Example 265, N′-(1,2,3,5,6,7-hexahydro-s-indacen-4-ylcarbamoyl)-4-(2-hydroxypropan-2-yl)-5-methylthiazole-2-sulfonimidamide] |
| 1000 to 5000 nM | CC(=O)N(C)Cc1ccc(S(N)(=O)=NC(=O)Nc2c3c(cc4c2CCC4)CCC3)cc1 (stereo not shown) [Example 268, N-(4-(N′-(1,2,3,5,6,7-hexahydro-s-indacen-4-ylcarbamoyl)sulfamimidoyl)benzyl)-N-methylacetamide] |
| 1000 to 5000 nM | CN1CCc2cc(S(N)(=O)=NC(=O)Nc3c4c(cc5c3CCC5)CCC4)ccc2C1 (stereo not shown) [Example 270, N′-((1,2,3,5,6,7-hexahydro-s-indacen-4-yl)carbamoyl)-2-methyl-1,2,3,4-tetrahydroisoquinoline-6-sulfonimidamide] |
| 1000 to 5000 nM | CN1CCc2ccc(S(=N)(=O)NC(=O)Nc3c4c(cc5c3CCC5)CCC4)cc2C1 (stereo not shown) [Example 271, N-(1,2,3,5,6,7-hexahydro-s-indacen-4-ylcarbamoyl)-2-methyl-1,2,3,4-tetrahydroisoquinoline-7-sulfonimidamide] |
| 200 to 1000 nM | COc1cc(CN(C)C)ccc1S(N)(=O)=NC(=O)Nc1c2c(cc3c1CCC3)CCC2 (stereo not shown) [Example 272, 4-((Dimethylamino)methyl)-N′-((1,2,3,5,6,7-hexahydro-s-indacen-4-yl)carbamoyl)-2-methoxybenzenesulfonimidamide] |
| 5000 to 30000 nM | Cn1ncc2cc(S(N)(=O)=NC(=O)Nc3c4c(cc5c3CCC5)CCC4)ccc21 (stereo not shown) [Example 273, N′-(1,2,3,5,6,7-hexahydro-s-indacen-4-ylcarbamoyl)-1-methyl-1H-indazole-5-sulfonimidamide] |
| 1000 to 5000 nM | CC(C)Cc1ccc(S(N)(=O)=NC(=O)Nc2c3c(cc4c2CCC4)CCC3)cn1 (stereo not shown) [Example 275, N′-(1,2,3,5,6,7-hexahydro-s-indacen-4-ylcarbamoyl)-6-isobutylpyridine-3-sulfonimidamide] |
| 200 to 1000 nM | CN(C)Cc1ccc(S(N)(=O)=NC(=O)Nc2c3c(cc4c2CCC4)CCC3)cn1 (stereo not shown) [Example 276, 6-((Dimethylamino)methyl)-N′-(1,2,3,5,6,7-hexahydro-s-indacen-4-ylcarbamoyl)pyridine-3-sulfonimidamide] |
| 200 to 1000 nM | CN(C)Cc1ccc(S(N)(=O)=NC(=O)Nc2c3c(cc4c2CCC4)CCC3)cc1F (stereo not shown) [Example 280, 4-((dimethylamino)methyl)-3-fluoro-N′-((1,2,3,5,6,7-hexahydro-s-indacen-4-yl)carbamoyl)benzenesulfonimidamide] |
| 8 to 40 nM | CC(C)(O)c1cc(F)c(S(N)(=O)=NC(=O)Nc2c3c(cc4c2CC4)CCC3)s1 (stereo not shown) [Example 281, 3-fluoro-5-(2-hydroxypropan-2-yl)-N′-((2,4,5,6-tetrahydro-1H-cyclobuta[f]inden-3-yl)carbamoyl)thiophene-2-sulfonimidamide] |

same assay, conditions: Homo sapiens, THP-1, hTHP-1 assay containing 2% fetal bovine serum; average; given as bound; read-out: hTHP-1 IC50 (Average IC50 of compounds in hTHP-1 assay)

| SMILES | IC50 |
| --- | --- |
| CN(Cc1ccc(S(N)(=O)=NC(=O)Nc2c3c(cc4c2CCC4)CCC3)cc1)C(=O)CCC(=O)O (stereo not shown) [Example 252] | > 30000 nM |
| CCc1ccc2cn(C)nc2c1NC(=O)N=S(N)(=O)c1ncc(C(C)(C)O)s1 (stereo not shown) [Example 256, N′-((6-ethyl-2-methyl-2H-indazol-7-yl)carbamoyl)-5-(2-hydroxypropan-2-yl)thiazole-2-sulfonimidamide] | > 30000 nM |
| CC(C)Cc1ccc(S(N)(=O)=NC(=O)Nc2c3c(cc4c2CCC4)CCC3)cc1 (stereo not shown) [Example 277, N′-(1,2,3,5,6,7-hexahydro-s-indacen-4-ylcarbamoyl)-4-isobutylbenzenesulfonimidamide] | > 30000 nM |

same assay, conditions: hTHP-1 assay containing 2% fetal bovine serum; average; class symbols; read-out: hTHP-1 IC50 (Average IC50 of compounds in hTHP-1 assay)

| SMILES | IC50 |
| --- | --- |
| CN(C(=O)N=S(N)(=O)c1cnc(C(C)(C)O)s1)c1c2c(cc3c1CCC3)CCC2 (stereo not shown) [Example 248, N′-((1,2,3,5,6,7-hexahydro-s-indacen-4-yl)(methyl)carbamoyl)-2-(2-hydroxypropan-2-yl) thiazole-5-sulfonimidamide] | 5000 to 30000 nM |
